Like-named read-outs stand apart in the source and are kept apart here.
How the values were obtained:
[1] = Study 1 SAD part: plasma pharmacokinetics after single oral doses; assay type: in vivo, human; conditions: for half-life / Tmax / Cmax / AUC(0-inf) / AUC / concentration at 24 h: male, human, plasma, oral; for AUC: read-out: AUC0‐24h; for concentration at 24 h: read-out: C24h
Experimental: GLPG1205 or matching placebo were administered as an oral nanosuspension in the morning in a fed condition as an outpatient. For both the single ascending doses (SADs) and multiple ascending doses (MADs) parts of the study, subjects attended a screening visit (21 to 2 days before first study drug administration) and a follow‐up visit (7 to 10 days after the last dose).
The SAD part of the study comprised 16 healthy male subjects in 2 alternating cohorts (A and B, n = 8 each). Cohort A received GLPG1205 10, 90, 400, and 800 mg or matching placebo, and cohort B received GLPG1205 30, 200, and 600 mg or matching placebo. Subjects were randomly assigned to receive GLPG1205 or matching placebo in a 3:1 ratio once at the beginning of the study. In addition, subjects in cohorts A and B were randomized to a treatment sequence. […] An interval of at least 3 days was enforced between 2 dose levels (between cohort A and B). Subjects were kept in‐house from the evening of day –1 to ≈26 hours after dosing (morning of day 2).
In the SAD part of study 1, blood samples (2 mL) for PK assessments were obtained before dosing and at multiple time points on the day of study drug administration (before dosing and 0.5, 1, 2, 4, 6, 8, and 12 hours after dosing) and at 24, 48, and 72 hours after dosing. The predose sample for the next dose level was also used in PK analysis (168 hours after dosing). […] In the MAD part of study 1, blood samples (2 mL) were obtained on days 1, 2, 4, 5, 6, 8, 10, 12, 14, 15, 16, 17, and 18 and at follow‐up (approximately 7 to 10 days after the last dose). These PK blood samples were taken after dosing (1, 2, 4, 6, 8, 12, and 24 hours) on day 1; before dosing on days 4, 6, 8, and 10; and after dosing (1, 2, 4, 6, 8, 12, 24, 72, and 96 hours) on day 14. The following additional PK blood samples were also taken: cohort C, before dosing on day 5; and cohorts D and E, before dosing on day 12. Urine samples were obtained from fractions collected over 6‐ or 12‐hour periods after dosing on days –1, 1, 2, 13, 14, and 15; samples obtained on days –1 and 13 were for cytochrome P450 (CYP) induction analysis only. In study 2, blood samples (2 mL) were obtained on days 1, 2, 5, 7, 10, 14, 15, 17, and 20 and at follow‐up (approximately 21 days after end of study medication administration). Blood samples were taken before dosing and at 1, 2, 4, 6, 8, 12, and 24 hours after drug administration on days 1 and 14 and before dosing on other sampling days.
Blood samples were immediately chilled (ice bath), and the plasma was separated by centrifugation (4°C for 10 minutes at ≈1500 g) within 30 minutes of blood collection.
GLPG1205 plasma concentrations were determined using a validated liquid chromatography with tandem mass spectrometry method. After a protein precipitation with methanol, a chromatographic separation was performed on a Kinetex C18 column (50×3.0 mm, 2.6 μm; Phenomenex, Torrance, California) set at 40°C by using a Nexera high‐performance liquid chromatography (HPLC) system (Shimadzu, Kyoto, Japan) or an Infinity HPLC system (Agilent Technologies, Diegem, Belgium) in isocratic elution mode. A QTRAP6500, QTRAP4000, or API4000 mass spectrometer (AB Sciex, Nieuwerkerk aan den Ijssel, The Netherlands) equipped with a TurboIonSpray probe operated in the multiple reaction monitoring in positive mode was used for quantification. The calibration curves in plasma were linear over the range of 1 to 1000 ng/mL with 1/x^2 as weighting factor. The limit of quantification of the assay in the plasma samples was set at 1 ng/mL.
PK calculations were performed using Phoenix WinNonlin 6.2 (Pharsight Corporation, Palo Alto, California). […] AUC0‐inf was calculated from the area under the plasma concentration‐time curve from time 0 until the time corresponding with the last observed quantifiable concentration + Ct/λz, where Ct was the last observed quantifiable concentration and λz the first‐order terminal rate constant. […]

[2] = set-up: method as in PMID 32902984; conditions: rats, up to 100 mg/kg/d; cited from earlier work
CYP2C8 = tested on: CYP2C8; set-up: method as in data on file at Galapagos; conditions: in vitro; ref data on file at Galapagos; cited from earlier work
CYP1A2 = tested on: CYP1A2; set-up: method as in data on file at Galapagos; conditions: in vitro; ref data on file at Galapagos; cited from earlier work
CYP2C9 = tested on: CYP2C9; set-up: method as in data on file at Galapagos, 8, 9; conditions: 100 mg once daily, healthy male subjects; ref data on file at Galapagos, 8, 9; cited from earlier work
[3] = single 10 mg, arithmetic mean (CV%)
[4] = single 30 mg, arithmetic mean (CV%)
[5] = single 90 mg, arithmetic mean (CV%)
[6] = single 200 mg, arithmetic mean (CV%)
[7] = single 400 mg, arithmetic mean (CV%)
[8] = single 600 mg, arithmetic mean (CV%)
[9] = single 800 mg, arithmetic mean (CV%)

`O=c1nc(OC[C@@H]2COCCO2)cc2n1CCc1cc(C#CC3CC3)ccc1-2` [GLPG1205, 9‐cyclopropylethynyl‐2‐((S)‐1‐[1,4]dioxan‐2‐ylmethoxy)‐6,7‐dihydropyrimido[6,1‐a]isoquinolin‐4‐one] gave a half-life ([1]; after single administration, 10 to 800 mg, read-out: arithmetic mean apparent terminal half-life (t1/2,λz) range) of 1.25 to 5.83 days, a Tmax ([1]; after single administration, 10 to 800 mg, read-out: median tmax range) of 2 to 4 h and a Cmax [1, 3] of 94.2 ng/mL. It also gave an AUC(0-inf) ([1]; single 10 mg, arithmetic mean (CV%), N = 3) of 3310 ng·h/mL, an AUC [1, 3] of 1330 ng·h/mL and a concentration at 24 h [1, 3] of 39.8 ng/mL. The half-life ([1]; single 10 mg, arithmetic mean (CV%), read-out: t1/2,λz (converted)) was 1.34 days, the Cmax [1, 4] was 284 ng/mL and the AUC(0-inf) ([1]; single 30 mg, arithmetic mean (CV%), N = 4) was 11500 ng·h/mL. It also gave a half-life ([1]; single 30 mg, arithmetic mean (CV%), N = 5, read-out: t1/2,λz (converted)) of 1.25 days, an AUC [1, 4] of 4470 ng·h/mL and a concentration at 24 h [1, 4] of 144 ng/mL. For the same compound, the Tmax ([1]; single 30 mg, median (minimum-maximum), read-out: tmax) was 4 h, the Cmax [1, 5] was 890 ng/mL and the AUC(0-inf) ([1]; single 90 mg, arithmetic mean (CV%), N = 4) was 52300 ng·h/mL. It also gave an AUC [1, 5] of 14300 ng·h/mL, a concentration at 24 h [1, 5] of 511 ng/mL and a half-life ([1]; single 90 mg, arithmetic mean (CV%), read-out: t1/2,λz (converted)) of 2.4 days. The Tmax ([1]; single 90 mg, median (minimum-maximum), read-out: tmax) was 4 h, the Cmax [1, 6] was 2200 ng/mL and the AUC(0-inf) ([1]; single 200 mg, arithmetic mean (CV%), N = 4) was 120000 ng·h/mL. The half-life ([1]; single 200 mg, arithmetic mean (CV%), N = 5, read-out: t1/2,λz (converted)) was 2.26 days, the AUC [1, 6] was 35800 ng·h/mL and the concentration at 24 h [1, 6] was 1260 ng/mL. The Tmax ([1]; single 200 mg, median (minimum-maximum), read-out: tmax) was 3 h, the Cmax [1, 7] was 3390 ng/mL and the AUC [1, 7] was 58000 ng·h/mL. For the same compound, the concentration at 24 h [1, 7] was 2150 ng/mL, the half-life ([1]; single 400 mg, arithmetic mean (CV%), read-out: t1/2,λz (converted)) was 3.85 days and the AUC(0-inf) ([1]; single 400 mg, arithmetic mean, N = 2) was 224000 ng·h/mL. It also gave a Tmax ([1]; single 400 mg, median (minimum-maximum), read-out: tmax) of 4 h, a Cmax [1, 8] of 5530 ng/mL and a half-life ([1]; single 600 mg, arithmetic mean (CV%), N = 3, read-out: t1/2,λz (converted)) of 3.12 days. It also gave an AUC [1, 8] of 94000 ng·h/mL, a concentration at 24 h [1, 8] of 3410 ng/mL and a Tmax ([1]; single 600 mg, median (minimum-maximum), read-out: tmax) of 4 h. The Cmax [1, 9] was 7500 ng/mL, the AUC [1, 9] was 130000 ng·h/mL and the concentration at 24 h [1, 9] was 5000 ng/mL. For the same compound, the half-life ([1]; single 800 mg, arithmetic mean, N = 2, read-out: t1/2,λz (converted)) was 5.83 days, the Tmax ([1]; single 800 mg, median (minimum-maximum), read-out: tmax) was 4 h and the dose-proportionality of exposure ([1]; single doses between 10 and 800 mg) was “did not markedly deviate from dose‐proportionality”. The dose-proportionality of exposure [2] was “increased dose‐proportionally”, the “inhibition of CYP2C8” value (CYP2C8) was “weak inhibition” and the “induction of CYP1A2” value (CYP1A2) was “weak induction”. The “effect on exposure of CYP2C9” value (CYP2C9) was “did not affect the exposure”.

— PMC8453901, “GLPG1205, a GPR84 Modulator: Safety, Pharmacokinetics, and Pharmacodynamics in Healthy Subjects” (Clinical Pharmacology in Drug Development, 2021)
